Source: patent publication EP4644383A1 (Jiangsu Yahong Meditech Co., Ltd., priority 2022, dated 2024)
Like-named read-outs stand apart in the source and are kept apart here.

How the values were obtained:
FGFR1 = molecular target: T1, FGFR1 (Homo sapiens, UniProt P11362); test: FGFR1 kinase activity inhibition assay (LanthaScreen TR-FRET); format: biochemical
T1 construct: cytoplasmic domain [398-822 (terminal) amino acids]; purchased Carna 08-133
In short: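 Emission ratio 520 nm/495 nm by TR-FRET after stopping reaction with 10 mM EDTA and 60 min incubation at 22°C. Inhibition normalized between no-enzyme (min) and DMSO (max) controls, then fitted to a four-parameter curve (Top, Bottom, HillSlope).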

FGFR3 = molecular target: T2, FGFR3 (Homo sapiens, UniProt P22607); test: FGFR3 kinase activity inhibition assay (LanthaScreen TR-FRET); format: biochemical; conditions: for Selectivity (X) FGFR1/FGFR3: ratio of IC50 FGFR1/FGFR3, selectivity towards FGFR3
T2 construct: FGFR3's cytoplasmic domain [436-806 (terminal) amino acids]; purchased Carna 08-135
T2 sequence (P22607 436-806): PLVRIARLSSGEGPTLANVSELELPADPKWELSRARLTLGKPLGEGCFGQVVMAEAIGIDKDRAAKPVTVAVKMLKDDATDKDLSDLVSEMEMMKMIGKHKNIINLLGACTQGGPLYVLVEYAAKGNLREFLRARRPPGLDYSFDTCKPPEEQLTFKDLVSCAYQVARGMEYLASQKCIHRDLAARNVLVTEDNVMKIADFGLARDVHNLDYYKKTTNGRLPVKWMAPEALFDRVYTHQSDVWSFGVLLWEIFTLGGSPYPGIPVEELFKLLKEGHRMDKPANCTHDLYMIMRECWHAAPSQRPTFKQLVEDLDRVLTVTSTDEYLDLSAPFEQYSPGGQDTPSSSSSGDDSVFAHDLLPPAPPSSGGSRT
In short: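 Read-out is TR-FRET, with the 520 nm/495 nm emission ratio normalised to DMSO (max) and enzyme-free (min) controls. Enzyme was the FGFR3 cytoplasmic domain, residues 436-806. EDTA (10 mM) stopped the reaction, followed by 60 min at 22 °C before reading.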

[1] = FGFR1 kinase, TR-FRET, read-out: IC50 (nM) FGFR1
[2] = FGFR3 kinase, TR-FRET, read-out: IC50 (nM) FGFR3

T1 sequence (P11362 398-822): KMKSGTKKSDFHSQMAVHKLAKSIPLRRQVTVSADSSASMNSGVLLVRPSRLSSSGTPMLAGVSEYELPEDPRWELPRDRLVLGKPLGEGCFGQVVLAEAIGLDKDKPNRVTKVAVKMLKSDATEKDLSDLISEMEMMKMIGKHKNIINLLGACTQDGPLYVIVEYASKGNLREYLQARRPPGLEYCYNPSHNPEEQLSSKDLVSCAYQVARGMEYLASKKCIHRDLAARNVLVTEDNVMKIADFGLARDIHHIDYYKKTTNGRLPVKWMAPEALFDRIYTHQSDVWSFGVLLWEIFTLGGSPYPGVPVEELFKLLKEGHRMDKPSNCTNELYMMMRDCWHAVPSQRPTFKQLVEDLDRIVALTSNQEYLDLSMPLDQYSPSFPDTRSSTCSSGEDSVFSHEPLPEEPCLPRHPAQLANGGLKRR

| Compound | IC50 (FGFR1; [1]) [nM] | IC50 (FGFR3; [2]) [nM] | Selectivity (X) FGFR1/FGFR3 (FGFR3) | IC50 (FGFR1) [nM] | IC50 (FGFR3) [nM] |
| --- | --- | --- | --- | --- | --- |
| CC(Oc1cc(F)c2[nH]nc(-c3cnn(C)c3)c2c1)c1cc(Cl)cc2nccnc12 (stereo not drawn) [Example 228, 7-chloro-5-(1-((7-fluoro-3-(1-methyl-1H-pyrazol-4-yl)-1H-indazol-5-yl)oxy)ethyl)qu inoxaline] | 10 to 100 | 1 to 10 | B (B represents 20 ≤ multiple X<50) | – | – |
| CCC(Oc1ccc2[nH]nc(-c3cnn(C)c3)c2c1)c1c(C)ccc2ncccc12 (stereo not drawn) [Example 113, 6-methyl-5-(1-((3-(1-methyl-1H-pyrazol-4-yl)-1H-indazol-5-yl)oxy)propyl)quinoline] | 10 to 100 | 1 to 10 | A (A represents 1 ≤ multiple X<20) | – | – |
| C[C@@H](Oc1ccc2[nH]nc(-c3cnn(CC4CC4)c3)c2n1)c1c(Cl)cncc1Cl [Example 49, (R)-3-(1-(cyclopropylmethy 1)-1H-pyrazol-4-yl)-5-(1-(3,5-dichloropyridin-4-yl)ethoxy)-1H-pyrazolo[4,3-b]pyridine] | 10 to 100 | 1 to 10 | B (B represents 20 ≤ multiple X<50) | – | – |
| C[C@@H](Oc1ccc2[nH]nc(-c3cnn(CCS(C)(=O)=O)c3)c2n1)c1c(Cl)cncc1Cl [Example 42, (R)-5-(1-(3,5-dichloropyridin-4-yl)ethoxy)-3-(1-(2-(methylsulfonyl)ethyl)-1H-pyrazol-4-yl)-1H-pyrazolo[4,3-b]pyridine] | 10 to 100 | 1 to 10 | B (B represents 20 ≤ multiple X<50) | – | – |
| CC(Oc1ccc2[nH]nc(-c3cnn(C)c3)c2c1)c1nccn2nccc12 (stereo not drawn) [Example 176, 4-(1-((3-(1-methyl-1H-pyrazol-4-yl)-1H-indazol-5-yl)oxy)ethyl)py razolo[1,5-a]pyrazine] | 10 to 100 | 1 to 10 | A (A represents 1 ≤ multiple X<20) | – | – |
| Cc1cc2nccnc2c(C(C)Oc2cc(F)c3[nH]nc(-c4cnn(C)c4)c3c2)n1 (stereo not drawn) [Example 225, 5-(1-((7-fluoro-3-(1-methyl-1H-pyrazol-4-yl)-1H-indazol-5-yl)oxy)ethyl)-7-methylpyridino[3,4-b]pyrazine] | 1 to 10 | < 1 | A (A represents 1 ≤ multiple X<20) | – | – |
| CC(Oc1ccc2[nH]nc(-c3cnn(C4CC(N(C)C(=O)C(C)(C)O)C4)c3)c2c1)c1cccc2nccnc12 (stereo not drawn) [Example 197, 2-hydroxy-N,2-dimethyl-N-(3-(4-(5-(1-(quinoxalin-5-yl)ethoxy)-1H-indazol-3-yl)-1H-pyrazol-1-yl)cyclobutyl)prop anamide] | 10 to 100 | < 1 | B (B represents 20 ≤ multiple X<50) | – | – |
| C[C@@H](Oc1cc(F)c2[nH]nc(-c3cnn(CCC4CCOCC4)c3)c2c1)c1c(Cl)cncc1Cl [Example 18, (R)-5-(1-(3,5-dichloropyridin-4-yl)ethoxy)-7-fluoro-3-(1-(2-(tetrahydro-2H-pyran-4-yl)ethyl)-1H-pyrazol-4-yl)-1H-indazole] | – | – | A (A represents 1 ≤ multiple X<20) | 1 to 10 | 1 to 10 |
| CC(Oc1ccc2[nH]nc(-c3cnn(C4CN(C(=O)C5(O)CC5)C4)c3)c2c1)c1cc(Cl)cc2nccnc12 (stereo not drawn) [Example 222, (3-(4-(5-(1-(7-chloroquinoxalin-5-yl)ethoxy)-1H-indazol-3-yl)-1H-pyrazol-1-yl)azetidin-1-yl)(1-hydroxycyclopropyl)methanone] | 10 to 100 | < 1 | B (B represents 20 ≤ multiple X<50) | – | – |
| C[C@@H](Oc1ccc2[nH]nc(-c3cnn(CCN4CCN(S(C)(=O)=O)CC4)c3)c2n1)c1c(Cl)cncc1Cl [Example 56, (R)-5-(1-(3,5-dichloropyridin-4-yl)ethoxy)-3-(1-(2-(4-(methylsulfonyl)piperazin-1-yl)ethyl)-1H-pyrazol-4-yl)-1H-pyrazolo[4,3-b]pyridine] | 1 to 10 | < 1 | A (A represents 1 ≤ multiple X<20) | – | – |
| Cc1c(-c2n[nH]c3ccc(O[C@H](C)c4c(Cl)cncc4Cl)nc23)cnn1C [Example 30, (R)-5-(1-(3,5-dichloropyridin-4-yl)ethoxy)-3-(1,5-dimethyl-1H-pyrazol-4-yl)-1H-pyrazolo[4,3-b]pyridine] | – | – | A (A represents 1 ≤ multiple X<20) | 10 to 100 | 10 to 100 |
| CC(=O)N1CCC(n2cc(-c3n[nH]c4ccc(O[C@H](C)c5c(Cl)cncc5Cl)nc34)cn2)CC1 [Example 35] | – | – | A (A represents 1 ≤ multiple X<20) | 1 to 10 | < 1 |
| CC(Oc1ccc2[nH]nc(-c3cnn(C4COC4)c3)c2c1)c1cc(Cl)cc2nccnc12 (stereo not drawn) [Example 239] | 10 to 100 | 1 to 10 | C (C represents 50 ≤ multiple X<100) | – | – |
| CC(Oc1ccc2[nH]nc(-c3cnn(C4CN(CC(N)=O)C4)c3)c2c1)c1cccc2nccnc12 (stereo not drawn) [Example 214, 2-(3-(4-(5-(1-(quinoxalin-5-yl)ethoxy)-1H-indazol-3-yl)-1H-pyrazol-1-yl)azetidin-1-yl)acetamide] | 10 to 100 | < 1 | B (B represents 20 ≤ multiple X<50) | – | – |
| C[C@@H](Oc1ccc2[nH]nc(-c3cnn(CCCN4CCOCC4)c3)c2n1)c1c(Cl)cncc1Cl [Example 32, (R)-4-(3-(4-(5-(1-(3,5-dichloropyridin-4-yl)ethoxy)-1H-pyrazolo[4,3-b]pyridin-3-yl)-1H-pyrazol-1-yl)propyl)morpholine] | 1 to 10 | < 1 | A (A represents 1 ≤ multiple X<20) | – | – |
| CC(=O)N1CCC(n2cc(-c3n[nH]c4c(F)cc(O[C@H](C)c5c(Cl)cncc5Cl)cc34)cn2)CC1 [Example 13] | 10 to 100 | 1 to 10 | A (A represents 1 ≤ multiple X<20) | – | – |
| CC(Oc1ccc2[nH]nc(-c3cnn(C4CN(C(=O)C5(O)CCC5)C4)c3)c2c1)c1cccc2nccnc12 (stereo not drawn) [Example 221, (1-hydroxycyclobutyl)(3-(4-(5-(1-(quinoxalin-5-yl)ethoxy)-1H-indazol-3-yl)-1H-pyrazol-1-yl)azetidin-1-yl)methanone] | 1 to 10 | < 1 | B (B represents 20 ≤ multiple X<50) | – | – |
